Results: patent publication US20080051315A1 (priority 2003, published 2008)

How the values were obtained:
[1] = tested on: pyramidal neurons in slices from GRPR knockout mice; type: cell-based, mouse
[2] = target: GRPR (Mus musculus, UniProt P21729); type: cell-based
[3] = tested on: GABAA receptors; assay: block of sIPSCs in pyramidal neurons of the lateral amygdala; type: cell-based, mouse; conditions: picrotoxin 50 uM; n=10; holding potential -70 mV
Protocol: Amygdala slices (250-300 um) were prepared from 3-5 week old control and GRPR knockout mice (littermates) with a vibratome. Slices were continuously superfused in solution containing (in mM): 119 NaCl, 2.5 KCl, 2.5 CaCl2,1.0 MgSO4, 1.25 NaH2PO4, 26.0 NaHCO3, 10 glucose, and equilibrated with 95% O2 and 5% CO2 [pH 7.3-7.4] at room temperature. Whole-cell recordings of evoked compound EPSCs or spontaneous GABA-mediated IPSCs were obtained from pyramidal cells in the lateral amygdala under visual guidance (DIG/ infrared optics) with an EPC-9 amplifier and Pulse v8.09 software (HEKA Elektronik). […] Series resistance was monitored throughout experiment and was in a range of […]. […] The EPSC amplitudes were measured as the difference between the mean current during a prestimulus baseline and the mean current over a 2 ms-window at the peak of the response. […]
The spontaneous IPSCs were recorded on videotape for off line analysis in the presence of 20 uM CNQX. Data were analyzed with the Mini Analysis Program v5.2.4 (Synaptosoft Inc., Decatur, Ga.; Bolshakov et al., 2000).
We recorded spontaneous inhibitory postsynaptic currents (sIPSCs) in the pyramidal neurons having blocked the AM PA (a-amino-3-hydroxy-5-methyl-4-isoxazolepropionic acid) receptor-mediated responses (FIG. 2) with CNQX (6-cyano-7-nitroquinoxaline-2,3-dione, 20 uM).

Chain of GRPR (P21729 whole entry): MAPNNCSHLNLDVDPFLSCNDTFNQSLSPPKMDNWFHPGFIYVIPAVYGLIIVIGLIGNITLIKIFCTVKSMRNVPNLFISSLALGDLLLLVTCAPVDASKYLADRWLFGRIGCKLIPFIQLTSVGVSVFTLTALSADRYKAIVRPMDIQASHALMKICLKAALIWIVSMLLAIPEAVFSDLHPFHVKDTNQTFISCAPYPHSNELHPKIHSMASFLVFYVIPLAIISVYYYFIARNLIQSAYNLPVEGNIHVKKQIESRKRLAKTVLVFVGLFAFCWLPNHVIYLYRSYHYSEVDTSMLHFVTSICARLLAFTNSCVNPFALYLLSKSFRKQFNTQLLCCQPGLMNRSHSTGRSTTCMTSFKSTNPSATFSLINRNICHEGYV

Molecule: gastrin-releasing peptide [GRP]
- effect of GRP on frequency of sIPSCs (in words) [1]: failed to increase
- frequency of sIPSCs [1]: 5.64±0.67 Hz

Molecule: NC1=N[C@H](O)[C@H]2[C@H]3O[C@]4(O)O[C@@H]([C@@H](O)[C@@]2(N1)[C@@H]4O)[C@]3(O)CO [TTX, tetrodotoxin]
- effect of GRP on frequency of sIPSCs in the presence of TTX [2]: blocking the effects of the agonist

Molecule: picrotoxin
- block of sIPSCs [3]: completely blocked
